biological target: T1, hGOAT (Homo sapiens, UniProt Q96T53); test: Determination of hGOAT activity in HEK293 cells after incubation with test compound (acyl-ghrelin ELISA); type: cell-based; conditions: HEK293 cells stably transfected with preproghrelin and human GOAT; octanoate-BSA 100 μM; 5 hours incubation; acyl-ghrelin in medium by ELISA; 8 compound concentrations
T1 construct: expressed in transfected cells; host or cells: HEK293 (Hek293 hGOAT/PPGhrl Clone #1B8)
T1 sequence (Q96T53 1-435): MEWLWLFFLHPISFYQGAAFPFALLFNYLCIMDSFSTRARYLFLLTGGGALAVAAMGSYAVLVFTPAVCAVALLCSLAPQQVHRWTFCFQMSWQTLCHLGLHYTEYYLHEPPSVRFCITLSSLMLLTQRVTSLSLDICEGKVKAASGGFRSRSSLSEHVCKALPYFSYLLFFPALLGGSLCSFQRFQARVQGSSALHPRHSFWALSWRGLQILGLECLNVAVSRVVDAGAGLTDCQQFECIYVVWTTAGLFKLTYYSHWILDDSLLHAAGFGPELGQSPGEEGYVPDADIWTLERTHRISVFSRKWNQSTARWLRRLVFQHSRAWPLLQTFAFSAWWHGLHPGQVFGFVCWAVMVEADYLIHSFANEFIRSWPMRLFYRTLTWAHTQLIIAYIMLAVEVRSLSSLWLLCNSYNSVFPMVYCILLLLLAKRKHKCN
Description: Determination of hGOAT Activity in HEK293 Cells after Incubation with Test Compound
HEK293 cells stably transfected with two expression vectors, one coding for preproghrelin cDNA and a second for the expression of human GOATcDNA are used as a cellular model. After feeding the cells with octanoic acid for 5 hours, acyl-ghrelin is measured in cell culture medium by an ELISA procedure.
Cellline: Hek293 hGOAT/PPGhrl Clone #1B8Sodium octanoate, Sigma, Cat.-No. C5038
BD Poly-D-Lysin 384-well Plates, black-clear polystyrene BD Bioscience Cat.-No. […] ELISA human acylated Ghrelin Kit purchased from Bertin Pharman (detailed composition of buffers e.g. wash-puffer, ELISA buffer not known)
Cells are plated with a density of 5000 cells/well in 384-well poly-D-lysin plates and incubated for 1 day at 37° C., 5% CO2 in DMEM medium, 10% FCS, 1×NEAA, Puromycin (0.5 μg/ml) and G418 (1 mg/ml). Then the medium is changed to a identical medium without FCS and containing Octanoate-BSA (final concentration 100 μM each) and compound in DMSO (final DMSO concentration 0,3%). After incubation for 5 hours acylghrelin in the medium is measured by ELISA.
The medium sample is diluted 1:25 in Elisa buffer, a 25 μl aliquot is transferred to a 384-well ELISA plate previously washed 4 times with 100 μL wash buffer, and 25 μl tracer-solution is added. After incubation overnight (˜20 h) at 4° C. temperature the plate is washed 4 times with 100 μl wash-buffer per well. Finally 50 μl Ellman's reagent is added to each well and the plate is incubated in the dark for 20 minutes. The absorbance is measured at 405 nm in an Envision multilabel reader and the amount of acylated ghrelin is calculated according to a acylated ghrelin standard curve provided in the same plate.
The analysis of the data is performed by calculation of the percentage of acyl-ghrelin produced in the presence of test compound compared to the amount of acyl-ghrelin produced in the vehicle control samples. An inhibitor of the GOAT enzyme will give values between 100% CTL (no inhibition) and 0% CTL (complete inhibition).
IC50 values are calculated with Assay Explorer or other suited software based on curve fitting of results of 8 different compound concentrations.

| Structure (SMILES) | IC50 |
| --- | --- |
| Cc1nc2nonc2c(N)c1Cc1ccc(OCC2CC2(F)F)nc1 (stereo in doubt) [Compound 21.13, 6-[(6-{[(1R)-2,2-Difluorocyclopropyl]methoxy}pyridin-3-yl)methyl]-5-methyl-[1,2,5]oxadiazolo[3,4-b]pyridin-7-amine] | 0.718 nM |
| Cc1nc2nonc2c(N)c1Cc1ccc(Br)cc1 [Compound 1.1, 6-[(4-Bromophenyl)methyl]-5-methyl-[1,2,5]oxadiazolo[3,4-b]pyridin-7-amine] | 0.225 nM |
| Cc1nc2nonc2c(N)c1Cc1ccc(OC(F)(F)F)cc1 [Compound 1.2, 5-Methyl-6-{[4-(trifluoromethoxy)phenyl]methyl}-[1,2,5]oxadiazolo[3,4-b]pyridin-7-amine] | 0.387 nM |
| Cc1nc2nonc2c(N)c1Cc1ccc(C(F)(F)F)cc1 [Compound 1.3, 5-Methyl-6-{[4-(trifluoromethyl)phenyl]methyl}-[1,2,5]oxadiazolo[3,4-b]pyridin-7-amine] | 0.294 nM |
| Cc1nc2nonc2c(N)c1Cc1ccc(I)cc1 [Compound 1.4, 6-[(4-Iodophenyl)methyl]-5-methyl-[1,2,5]oxadiazolo[3,4-b]pyridin-7-amine] | 0.127 nM |
| COc1cc(OC(F)(F)F)ccc1Cc1c(C)nc2nonc2c1N [Compound 2.1, 6-{[2-Methoxy-4-(trifluoromethoxy)phenyl]methyl}-5-methyl-[1,2,5]oxadiazolo[3,4-b]pyridin-7-amine] | 0.092 nM |
| COc1cc(C(F)(F)F)ccc1Cc1c(C)nc2nonc2c1N [Compound 2.2, 6-{[2-Methoxy-4-(trifluoromethyl)phenyl]methyl}-5-methyl-[1,2,5]oxadiazolo[3,4-b]pyridin-7-amine] | 0.066 nM |
| COc1cc(Br)ccc1Cc1c(C)nc2nonc2c1N [Compound 2.3, 6-[(4-Bromo-2-methoxyphenyl)methyl]-5-methyl-[1,2,5]oxadiazolo[3,4-b]pyridin-7-amine] | 0.06 nM |
| COc1cc(C#N)ccc1Cc1c(C)nc2nonc2c1N [Compound 2.4, 4-({7-Amino-5-methyl-[1,2,5]oxadiazolo[3,4-b]pyridin-6-yl}methyl)-3-methoxybenzonitrile] | 0.133 nM |
| COc1cc(Cc2c(C)nc3nonc3c2N)ccc1C#N [Compound 2.5, 4-({7-Amino-5-methyl-[1,2,5]oxadiazolo[3,4-b]pyridin-6-yl}methyl)-2-methoxybenzonitrile] | 0.402 nM |
| Cc1nc2nonc2c(N)c1Cc1cccc(Br)c1 [Compound 2.6, 6-[(3-Bromophenyl)methyl]-5-methyl-[1,2,5]oxadiazolo[3,4-b]pyridin-7-amine] | 1.4 nM |
| Cc1nc2nonc2c(N)c1Cc1ccc(F)cc1F [Compound 2.7, 6-[(2,4-Difluorophenyl)methyl]-5-methyl-[1,2,5]oxadiazolo[3,4-b]pyridin-7-amine] | 0.353 nM |
| Cc1nc2nonc2c(N)c1Cc1ccc(C#N)cc1 [Compound 2.8, 4-({7-Amino-5-methyl-[1,2,5]oxadiazolo[3,4-b]pyridin-6-yl}methyl)benzonitrile] | 0.416 nM |
| Cc1nc2nonc2c(N)c1Cc1ccc(F)c(C#N)c1 [Compound 2.9, 5-({7-Amino-5-methyl-[1,2,5]oxadiazolo[3,4-b]pyridin-6-yl}methyl)-2-fluorobenzonitrile] | 2.01 nM |
| COC(=O)c1ccc(Cc2c(C)nc3nonc3c2N)cc1 [Compound 2.10, Methyl 4-({7-amino-5-methyl-[1,2,5]oxadiazolo[3,4-b]pyridin-6-yl}methyl)benzoate] | 0.132 nM |
| COc1ncccc1Cc1c(C)nc2nonc2c1N [Compound 2.11, 6-[(2-Methoxypyridin-3-yl)methyl]-5-methyl-[1,2,5]oxadiazolo[3,4-b]pyridin-7-amine] | 1.07 nM |
| Cc1nc2nonc2c(N)c1Cc1ccc(S(C)(=O)=O)cc1 [Compound 2.12, 6-[(4-Methanesulfonylphenyl)methyl]-5-methyl-[1,2,5]oxadiazolo[3,4-b]pyridin-7-amine] | 0.49 nM |

| Structure (SMILES) | IC50 |
| --- | --- |
| Cc1nc2nonc2c(N)c1Cc1cccc2c1cnn2C [Compound 2.13, 5-Methyl-6-[(1-methyl-1H-indazol-4-yl)methyl]-[1,2,5]oxadiazolo[3,4-b]pyridin-7-amine] | 0.66 nM |
| Cc1nc2nonc2c(N)c1Cc1ccc(OC(F)(F)F)c(Br)c1 [Compound 2.14, 6-{[3-Bromo-4-(trifluoromethoxy)phenyl]methyl}-5-methyl-[1,2,5]oxadiazolo[3,4-b]pyridin-7-amine] | 0.096 nM |
| Cc1nc2nonc2c(N)c1Cc1ccc(CC#N)cc1 [Compound 2.15, 2-[4-({7-Amino-5-methyl-[1,2,5]oxadiazolo[3,4-b]pyridin-6-yl}methyl)phenyl]acetonitrile] | 0.887 nM |
| Cc1nc2nonc2c(N)c1Cc1ccccc1 [Compound 2.16, 6-Benzyl-5-methyl-[1,2,5]oxadiazolo[3,4-b]pyridin-7-amine] | 3.03 nM |
| Cc1nc2nonc2c(N)c1C(=O)c1ccc(C(F)(F)F)cc1 [Compound 3.1, 5-Methyl-6-[4-(trifluoromethyl)benzoyl]-[1,2,5]oxadiazolo[3,4-b]pyridin-7-amine] | 5.83 nM |
| Cc1nc2nonc2c(N)c1Cc1ccc(F)c(F)c1 [Compound 4.0, 6-[(3,4-Difluorophenyl)methyl]-5-methyl-[1,2,5]oxadiazolo[3,4-b]pyridin-7-amine] | 0.494 nM |
| Cc1nc2nonc2c(N)c1Cc1ccc(Cl)c(Cl)c1 [Compound 4.1, 6-[(3,4-Dichlorophenyl)methyl]-5-methyl-[1,2,5]oxadiazolo[3,4-b]pyridin-7-amine] | 0.246 nM |
| Cc1nc2nonc2c(N)c1Cc1cccc(F)c1 [Compound 4.2, 6-[(3-Fluorophenyl)methyl]-5-methyl-[1,2,5]oxadiazolo[3,4-b]pyridin-7-amine] | 2.26 nM |
| COc1ccc(Cc2c(C)nc3nonc3c2N)cn1 [Compound 4.3, 6-[(6-Methoxypyridin-3-yl)methyl]-5-methyl-[1,2,5]oxadiazolo[3,4-b]pyridin-7-amine] | 1.58 nM |
| Cc1nc2nonc2c(N)c1Cc1ccc(F)nc1 [Compound 4.4, 6-[(6-Fluoropyridin-3-yl)methyl]-5-methyl-[1,2,5]oxadiazolo[3,4-b]pyridin-7-amine] | 4.06 nM |
| Cc1nc2nonc2c(N)c1Cc1ccc(C(F)(F)F)nc1 [Compound 4.5, 5-Methyl-6-{[6-(trifluoromethyl)pyridin-3-yl]methyl}-[1,2,5]oxadiazolo[3,4-b]pyridin-7-amine] | 1.59 nM |
| Cc1nc2nonc2c(N)c1Cc1ccc(C#N)nc1 [Compound 4.6, 5-({7-Amino-5-methyl-[1,2,5]oxadiazolo[3,4-b]pyridin-6-yl}methyl)pyridine-2-carbonitrile] | 3.1 nM |
| Cc1nc2nonc2c(N)c1Cc1ccc(C(C)(C)C)nc1 [Compound 4.7, 6-[(6-tert-butylpyridine-3-yl)methyl]-5-methyl-[1,2,5]oxadiazolo[3,4-b]pyridin-7-amine] | 0.124 nM |
| Cc1nc2nonc2c(N)c1Cc1ccc(C2(C#N)CC2)nc1 [Compound 4.8, 1-[5-({7-Amino-5-methyl-[1,2,5]oxadiazolo[3,4-b]pyridin-6-yl}methyl)pyridin-2-yl]cyclopropane-1-carbonitrile] | 1.41 nM |
| Cc1nc2nonc2c(N)c1Cc1cccn2c(C)nnc12 [Compound 4.9, 5-Methyl-6-({3-methyl-[1,2,4]triazolo[4,3-a]pyridin-8-yl}methyl)-[1,2,5]oxadiazolo[3,4-b]pyridin-7-amine] | 4.01 nM |
| Cc1nc2nonc2c(N)c1Cc1cccn2c(C(F)(F)F)nnc12 [Compound 4.10] | 5.36 nM |
| Cc1nc2nonc2c(N)c1Cc1cccn2cnnc12 [Compound 4.11, 5-Methyl-6-({[1,2,4]triazolo[4,3-a]pyridin-8-yl}methyl)-[1,2,5]oxadiazolo[3,4-b]pyridin-7-amine] | 3.42 nM |

Reference: patent US11254688B2 (Boehringer Ingelheim International GmbH, priority 2018, dated 2022)
